Literature values, collected in patent US20100216641A1, “Low VOC and Stable Plant Growth Regulator Liquid and Granule Compositions” (priority 2009, published 2010).

Details: at 25° C.

O=C(Nc1ccccc1)Nc1ccnc(Cl)c1 [CPPU, forchlorfenuron]
water solubility: 39 ppm
